Test results reported in patent US8114895B2, “Use of bipyridine compound ‘Caerulomycin A’ derivatives and analogs thereof as immunosuppressive agents” (Council of Science and Industrial Research, priority 2005, dated 2012).
Where two headings read alike, the source gives them in different places.

Key:
Th2 clones [1] = experiment: Proliferation of Th2 clones; type: cell-based; conditions: stimulated with anti-CD3 Ab or conalbumin pulsed γ-irradiated splenocytes; Caerulomycin A 0.00625-0.1 μg/ml
Description: The proliferation of Th2 clones was measured using cells harvested on 7-9 days after stimulation with antigen pulsed splenocytes. The dead cells were removed by ficoll-histopaque. Th2 clones (5×10^4 cells/well) were either stimulated with anti-CD3 Ab (0.1 μg/ml and 0.5 μg/ml) or incubated with γ-irradiated (3000 R) syngeneic splenocytes (5×10^5 cells/well) and conalbumin (100 μg/ml) in 200 μl RPMI/FCS-10% medium and with various concentrations of Caerulomycin A (0.00625-0.1 μg/ml). The control cultures consisting of Th2 cells incubated with conalbumin alone and γ-irradiated syngeneic splenocytes (no antigen) were also kept. The cultures were kept in a flat bottom 96 well microtitre plate and the cells were incubated at 37° C. and 7% CO2. After 48 h, the cultures were pulsed with 0.5 μCi of [^3H]-thymidine and harvested 16 h later. Radioactivity incorporated was measured by liquid scintillation counting and data are expressed as mean counts per minute (cpm).

Th2 clones [2] = experiment: Kinetics of the effect on the proliferation of Th2 clones; type: cell-based; conditions: anti-CD3 Ab 0.5 μg/ml, read-out: inhibitory effect on Th2 cells
Description: Th2 clones (5×10^4/well) were stimulated with anti-CD3 Ab (0.5 μg/ml). Caerulomycin A (0.05 μg/ml) was added either at the initiation of the cultures (time 0) or at various time points (4 h-48 h) After 48 h of the cultures, [^3H]-thymidine was added, and its incorporation was measured 12 h later.

peritoneal macrophages = experiment: Expression of B7-1, B7-2, CD40 and IA^d on peritoneal macrophages by flow cytometry; type: cell-based, BALB/c mice
Description: The expression of B7-1 and B7-2 was detected on the surface of peritoneal macrophages incubated with different concentrations of Caerulomycin A (0.05-0.1 μg/ml). Peritoneal macrophages were harvested from BALB/c mice inoculated 4 days previously with 2-3 ml of thioglycolate. The cells were washed with BSS. The macrophages were obtained by adhering for 1 h at 37° C. on plastic Petri dishes followed by washing several times in cold BSS. The macrophages (1×10^6) were stimulated with 10 μg/ml of LPS for 24, 48 and 72 h in the presence and absence of Caerulomycin A (0.05-0.1 μg/ml) at 37° C. and 7% CO2. Then the cells were harvested and stained with their respective antibodies. Briefly, the cells were centrifuged (1200×g, 4° C., 5 min) and the supernatant was aspirated. The cells were washed 3× with 1% BSA, 0.1% sodium azide in PBS. In the first step, the cells (1×10^6) were incubated with biotinylated anti-mouse B7-1, CD40 and I-A^d (1 μg/100 μl) Abs for 45 min at 4° C. In the next step cells were stained with streptavidin FITC (0.5 μg/100 μl) or PE conjugated anti-mouse B7-2 (0.5 μg/100 μl) Abs and incubated for 45 min. Usual steps of washing were followed at each step. Finally the cells were washed five times and fixed in paraformaldehyde. The stained cells were acquired on a FACScan as mentioned for CD28/CTLA-4. Since the antigen presenting cells express B7-1 and B7-2, which are the ligands of CTLA-4 and CD28. […] The expression of IA^d was detected on the surface of peritoneal macrophages incubated with different concentrations of Caerulomycin A (0.05-0.1 μg/ml). Peritoneal macrophages were harvested from BALB/c mice inoculated 4 days previously with 2-3 ml of thioglycolate. The cells were washed with BSS. The macrophages were obtained by adhering for 1 h at 37° C. on plastic Petri dishes followed by washing several times in cold BSS. The macrophages (1×10^6) were stimulated with 10 μg/ml of LPS for 24, 48 and 72 h in the presence and absence of Caerulomycin A (0.05-0.1 μg/ml) at 37° C. and 7% CO2. Then the cells were harvested and stained with their respective antibodies. Briefly, the cells were centrifuged (1200×g, 4° C., 5 min) and the supernatant was aspirated. The cells were washed 3× with 1% BSA, 0.1% sodium azide in PBS. In the first step, the cells (1×10^6) were incubated with biotinylated anti-mouse I-A^d (1 μg/100 μl) Abs for 45 min at 4° C. In the next step cells were stained with streptavidin FITC (0.5 μg/100 μl) and incubated for 45 min. Usual steps of washing were followed at each step. Finally the cells were washed five times and fixed in paraformaldehyde. The stained cells were acquired on a FACScan as mentioned for CD28/CTLA-4. […] This may indicate that Caerulomycin A may inhibit the processing and presentation of antigen by APC.

[3] = LPS 10 μg/ml, Caerulomycin A 0.05-0.1 μg/ml

## COc1cc(/C=N/O)nc(-c2ccccn2)c1 [Caerulomycin A, (E)-4-methoxy-2,2′-bipyridine-6-carbaldehyde oxime]
Th2 clones [1]
  proliferation of Th2 clones: substantially restricted the proliferation
Th2 clones [2]; 0.05 μg/ml added after 42 h
  inhibition at 0.05 µg/mL: 56%
Th2 clones [2]; 0.05 μg/ml added before 16 h of the initiation of the cultures
  inhibition at 0.05 µg/mL: 77 to 90%
Peritoneal macrophages; [3]
  display of B7-2: decreased the display
  expression of B7-1: enhanced the expression
  expression of IA^d: down regulated the expression
Peritoneal macrophages; after 72 h
  expression of CD40: Slight increase in the expression
